This note sets out measurements from patent US20250092016A1, “COMPOUNDS AND COMPOSITIONS FOR THE TREATMENT OF CORONAVIRAL RELATED DISEASES” (priority 2021, published 2025).

What is called IC50 is the midpoint of a concentration-inhibition curve.

Molecules are shown by their SMILES.

The assay deals with SARS-CoV-2 main protease (M^pro) (Severe acute respiratory syndrome coronavirus 2, UniProt P0DTD1). The assay is described as follows: Rapid-Fire MS Biochemical Assay measuring Mpro activity (5 nM Mpro). The conditions noted are these: Table 1B, Mpro inhibition, 5 μM substrate peptide, 120 min, read-out: Rapid-Fire Assay IC50.
As for `Cc1cc(Cl)cnc1N1CC(C#N)N(c2cncc3ccccc23)C1=O` (racemic) [Compound 80, 1-(5-chloro-3-methylpyridin-2-yl)-3-(isoquinolin-4-yl)-2-oxoimidazolidine-4-carbonitrile], the IC50 fell in the range of 20 to 200 nM.
As for `N#C[C@H]1CN(c2ccc(OC(F)F)cc2)C(=O)N1c1cncc2ccccc12` (single isomer, unassigned) [Compound 71a], the figure is less than 20 nM; as for `N#Cc1cnc(C(F)(F)F)cc1N1C[C@H](C#N)N(c2cncc3ccccc23)C1=O` (single isomer, unassigned) [Compound 117a], less than 20 nM; as for `COc1ccc(F)cc1N1C[C@@H](C#N)N(c2cncc3ccccc23)C1=O` (single isomer, unassigned) [Compound 105b], more than 1000 nM.
Turning to `Cn1cc(N2C[C@H](C#N)N(c3cncc4ccccc34)C2=O)cn1` (single isomer, unassigned) [Compound 65a], the IC50 fell in the range of 20 to 200 nM.
For `N#CC1CN(C2CC3(C2)CC(F)(F)C3)C(=O)N1c1cncc2ccccc12` (racemic) [Compound 127, 1-(6,6-difluorospiro[3.3]heptan-2-yl)-3-(isoquinolin-4-yl)-2-oxoimidazolidine-4-carbonitrile], the IC50 is less than 20 nM.
As for `N#C[C@H]1CN(c2cncc(C(F)(F)F)c2)C(=O)N1c1cncc2ccccc12` (single isomer, unassigned) [Compound 104a], the figure is less than 20 nM; as for `N#C[C@@H]1CN(c2ccnc(C(F)(F)F)c2)C(=O)N1c1cncc2ccccc12` (single isomer, unassigned) [Compound 57b], more than 1000 nM.
Next, `COc1cc(Cl)ccc1N1C[C@@H](C#N)N(c2cncc3ccccc23)C1=O` (single isomer, unassigned) [Compound 103b]: more than 1000 nM; `N#C[C@H]1CN(c2ncc(Cl)cn2)C(=O)N1c1cncc2ccccc12` (single isomer, unassigned) [Compound 16a]: less than 20 nM.
Next, `Cc1cnc(C(F)(F)F)nc1N1C[C@H](C#N)N(c2cncc3ccccc23)C1=O` (single isomer, unassigned) [Compound 62a]: 200 to 1000 nM; `N#C[C@H]1CN([C@H]2CCC(F)(F)C2)C(=O)N1c1cncc2ccccc12` (single isomer, unassigned) [Compound 141d, (R)-1-((S)-3,3-difluorocyclopentyl)-3-(isoquinolin-4-yl)-2-oxoimidazolidine-4-carbonitrile or (R)-1-((R)-3,3-difluorocyclopentyl)-3-(isoquinolin-4-yl)-2-oxoimidazolidine-4-carbonitrile]: 20 to 200 nM.
As for `N#C[C@@H]1CN(c2cccc(F)n2)C(=O)N1c1cncc2ccccc12` (single isomer, unassigned) [Compound 61b], the IC50 is more than 1000 nM.
Turning to `COc1ccc(N2C[C@H](C#N)N(c3cncc4ccccc34)C2=O)cn1` (single isomer, unassigned) [Compound 112a], the IC50 is less than 20 nM.
As for `CC(C)(O)c1ccc(N2C[C@H](C#N)N(c3cncc4ccccc34)C2=O)cc1` (single isomer, unassigned) [Compound 84a], the figure is 20 to 200 nM; as for `Cc1ccc(C(F)(F)F)nc1N1C[C@@H](C#N)N(c2cncc3ccccc23)C1=O` (single isomer, unassigned) [Compound 82b], more than 1000 nM; as for `Cc1c[nH]c(N2C[C@@H](C#N)N(c3cncc4ccccc34)C2=O)n1` (single isomer, unassigned) [Compound 118b], more than 1000 nM.
`N#C[C@H]1CN(c2ccc(F)nc2)C(=O)N1c1cncc2ccccc12` (single isomer, unassigned) [Compound 55a]: the IC50 was 20 to 200 nM.
As for `N#C[C@@H]1CN([C@H]2CC[C@H](F)CC2)C(=O)N1c1cncc2ccccc12` [Compound 121c, (S)-1-((1 r,4S)-4-fluorocyclohexyl)-3-(isoquinolin-4-yl)-2-oxoimidazolidine-4-carbonitrile], the IC50 is more than 1000 nM.
Turning to `N#C[C@@H]1CN(c2ccc(F)c(Cl)c2)C(=O)N1c1cncc2ccccc12` (single isomer, unassigned) [Compound 87b], the IC50 was more than 1000 nM.
Next, `COc1cc(N2C[C@H](C#N)N(c3cncc4ccccc34)C2=O)ccn1` (single isomer, unassigned) [Compound 23a]: less than 20 nM; `N#C[C@@H]1CN(c2cnnc(C(F)(F)F)c2)C(=O)N1c1cncc2ccccc12` (single isomer, unassigned) [Compound 13b]: more than 1000 nM; `COc1cc(Cl)cnc1N1CC(C#N)N(c2cncc3ccccc23)C1=O` (racemic) [Compound 58, 1-(5-chloro-3-methoxypyridin-2-yl)-3-(isoquinolin-4-yl)-2-oxoimidazolidine-4-carbonitrile]: 200 to 1000 nM.
As for `N#Cc1cccc(N2C[C@H](C#N)N(c3cncc4ccccc34)C2=O)c1` (single isomer, unassigned) [Compound 52a], the figure is less than 20 nM; as for `N#C[C@@H]1CN(c2ccc(F)nc2)C(=O)N1c1cncc2ccccc12` (single isomer, unassigned) [Compound 55b], more than 1000 nM.
Next, `CC1CC(N2CC(C#N)N(c3cncc4ccccc34)C2=O)C1` (single isomer, unassigned) [Compound 120a]: less than 20 nM; `N#Cc1ccc(N2C[C@H](C#N)N(c3cncc4ccccc34)C2=O)cc1` (single isomer, unassigned) [Compound 50a]: less than 20 nM; `N#C[C@@H]1CN([C@@H]2CCN(CCC(F)(F)F)C2)C(=O)N1c1cncc2ccccc12` (single isomer, unassigned) [Compound 26b]: more than 1000 nM.
Take `Cc1ccc(C(F)(F)F)nc1N1C[C@H](C#N)N(c2cncc3ccccc23)C1=O` (single isomer, unassigned) [Compound 82a]: the IC50 lay within 20 to 200 nM.
Consider `N#C[C@H]1CN(c2cnc(C(F)(F)F)c(F)c2)C(=O)N1c1cncc2ccccc12` (single isomer, unassigned) [Compound 77a], for which the IC50 was less than 20 nM.
Next, `N#C[C@H]1CN(c2ccc(C(F)F)nc2)C(=O)N1c1cncc2ccccc12` (single isomer, unassigned) [Compound 75a]: less than 20 nM; `N#C[C@H]1CN(c2nccc(C(F)(F)F)n2)C(=O)N1c1cncc2ccccc12` (single isomer, unassigned) [Compound 49a]: 20 to 200 nM.
Next, `N#C[C@H]1CN([C@@H]2CCN(CCC(F)(F)F)C2)C(=O)N1c1cncc2ccccc12` (single isomer, unassigned) [Compound 26a]: 200 to 1000 nM; `N#Cc1ccc(C(F)(F)F)cc1N1C[C@H](C#N)N(c2cncc3ccccc23)C1=O` (single isomer, unassigned) [Compound 90a]: less than 20 nM.
For the molecule `Cc1ccc(F)cc1N1C[C@H](C#N)N(c2cncc3ccccc23)C1=O` (single isomer, unassigned) [Compound 21a], the 50% inhibitory concentration (IC50) was less than 20 nM.
Take `N#C[C@@H]1CN([C@H]2CCC(F)(F)C2)C(=O)N1c1cncc2ccccc12` (single isomer, unassigned) [Compound 141b, (S)-1-((S)-3,3-difluorocyclopentyl)-3-(isoquinolin-4-yl)-2-oxoimidazolidine-4-carbonitrile or (S)-1-((R)-3,3-difluorocyclopentyl)-3-(isoquinolin-4-yl)-2-oxoimidazolidine-4-carbonitrile]: the IC50 is more than 1000 nM.
Take `N#C[C@@H]1CN(c2cc(Cl)cnn2)C(=O)N1c1cncc2ccccc12` (single isomer, unassigned) [Compound 54b]: the IC50 was 200 to 1000 nM.
As for `CC1(C)CC(N2C[C@@H](C#N)N(c3cncc4ccccc34)C2=O)C1` (single isomer, unassigned) [Compound 126b], the figure is more than 1000 nM; as for `CC(C)n1cc(N2CC(C#N)N(c3cncc4ccccc34)C2=O)cn1` (racemic) [Compound 64, 1-(1-isopropyl-1H-pyrazol-4-yl)-3-(isoquinolin-4-yl)-2-oxoimidazolidine-4-carbonitrile], 20 to 200 nM; as for `N#Cc1cc(Cl)ccc1N1CC(C#N)N(c2cncc3ccccc23)C1=O` (racemic) [Compound 60, 1-(4-chloro-2-cyanophenyl)-3-(isoquinolin-4-yl)-2-oxoimidazolidine-4-carbonitrile], 20 to 200 nM.
As for `N#Cc1ccc(Cl)cc1N1C[C@@H](C#N)N(c2cncc3ccccc23)C1=O` (single isomer, unassigned) [Compound 20b], the figure is more than 1000 nM.
Turning to `N#C[C@H]1CN(c2nc(Cl)c[nH]2)C(=O)N1c1cncc2ccccc12` (single isomer, unassigned) [Compound 119a], the IC50 is 20 to 200 nM.
Next, `COc1cc(Cl)ccc1N1CC(C#N)N(c2cncc3ccccc23)C1=O` (racemic) [Compound 103, 1-(4-chloro-2-methoxyphenyl)-3-(isoquinolin-4-yl)-2-oxoimidazolidine-4-carbonitrile]: 20 to 200 nM.
Next, `N#C[C@H]1CN(C2CC3(C2)CC(F)(F)C3)C(=O)N1c1cncc2ccccc12` (single isomer, unassigned) [Compound 127a]: less than 20 nM.
As for `N#C[C@@H]1CN([C@H]2C[C@@H](C3CC3)C2)C(=O)N1c1cncc2ccccc12` [Compound 124d, (S)-1-((1s,3R)-3-cyclopropylcyclobutyl)-3-(isoquinolin-4-yl)-2-oxoimidazolidine-4-carbonitrile], the figure is more than 1000 nM.
With `Cc1ncccc1N1C[C@H](C#N)N(c2cncc3ccccc23)C1=O` (single isomer, unassigned) [Compound 74a], the IC50 fell in the range of 200 to 1000 nM.
Next, `N#C[C@@H]1CN(C2CC3(CC3)C2)C(=O)N1c1cncc2ccccc12` (single isomer, unassigned) [Compound 125b]: more than 1000 nM; `N#C[C@@H]1CN(c2cccc3cn[nH]c23)C(=O)N1c1cncc2ccccc12` (single isomer, unassigned) [Compound 63b]: more than 1000 nM.
Consider `N#C[C@H]1CN(c2cccc(Cl)c2)C(=O)N1c1cncc2ccc(C(=O)O)cc12` (single isomer, unassigned) [Compound 33a], for which the IC50 is less than 20 nM.
